From ChEMBL document CHEMBL1201862, “PubChem BioAssay data set” (2004)
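Step 1: Grow cells in 96-well plates. Step 2: Expose to compound for 48 hours at 5 concentrations. Step 3: Interpolate endpoints linearly; if unreached, use highest concentration. GI50: concentration for 50% inhibition of growth.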 The source made the active and inactive calls. Rule as the data show it: active = GI50 up to about 1.1 µM and inactive = higher.

Tests used:
Assay in all cases: NCI tumour cell line growth inhibition, 48 h
NCI-H226 = tested on: NCI-H226
CCRF-CEM = tested on: CCRF-CEM
HCT-116 = tested on: HCT-116
UO-31 = tested on: UO-31
CAKI-1 = tested on: CAKI-1
UACC-62 = tested on: UACC-62
LXFL 529 = tested on: LXFL 529
HT-29 = tested on: HT-29
HCT-15 = tested on: HCT-15
SF-295 = tested on: SF-295
HL-60 = tested on: HL-60
NCI-H460 = tested on: NCI-H460
M19-MEL = tested on: M19-MEL
SF-539 = tested on: SF-539
NCI-H23 = tested on: NCI-H23
786-0 = tested on: 786-0
SN12C = tested on: SN12C

Structure (SMILES) | GI50 (NCI-H226) | GI50 (CCRF-CEM) | GI50 (HCT-116) | GI50 (UO-31) | GI50 (CAKI-1) | GI50 (UACC-62) | GI50 (LXFL 529) | GI50 (HT-29) | GI50 (HCT-15) | GI50 (SF-295) | GI50 (HL-60) | GI50 (NCI-H460) | GI50 (M19-MEL) | GI50 (SF-539) | GI50 (NCI-H23) | GI50 (786-0) | GI50 (SN12C)
CC(C)(c1ccc(Oc2ccc(C#N)c(C#N)c2)cc1)c1ccc(Oc2ccc(C#N)c(C#N)c2)cc1 | > 10 µM (inactive) | > 10 µM (inactive) | > 10 µM (inactive) | 3.58 µM (inactive) | > 10 µM (inactive) | > 10 µM (inactive) | > 10 µM (inactive) | > 10 µM (inactive) | > 10 µM | > 10 µM (inactive) | > 10 µM (inactive) | > 10 µM (inactive) | > 10 µM (inactive) | > 10 µM (inactive) | > 10 µM (inactive) | > 10 µM (inactive) | > 10 µM (inactive)
COc1cc(C(C#N)NNC(=O)Cc2ccccc2)cc(OC)c1OC (stereo not drawn) | > 100 µM (inactive) | > 10 µM (inactive) | > 100 µM (inactive) | 72.3 µM (inactive) | > 100 µM (inactive) | > 100 µM (inactive) | > 100 µM (inactive) | > 100 µM (inactive) | > 100 µM | > 100 µM (inactive) | > 100 µM (inactive) | > 100 µM (inactive) | > 100 µM (inactive) | > 100 µM (inactive) | > 100 µM (inactive) | > 100 µM (inactive) | > 100 µM (inactive)
C[Si]1(C)C(c2ccccc2)=CC2C(c3ccccc3)(c3ccccc3)OC21c1ccccc1 (stereo not drawn) | > 100 µM (inactive) | > 100 µM (inactive) | 28.2 µM (inactive) | > 100 µM (inactive) | > 100 µM (inactive) | > 100 µM (inactive) | > 100 µM (inactive) | 43 µM (inactive) | > 100 µM | 66.8 µM (inactive) | 28.7 µM (inactive) | > 100 µM (inactive) | > 100 µM (inactive) | > 100 µM (inactive) | > 100 µM (inactive) | > 100 µM (inactive) | > 100 µM (inactive)
CC/C(CC(=O)CCC(=O)Nc1ccccc1[N+](=O)[O-])=N/NC(=O)C[n+]1ccccc1 | > 100 µM (inactive) | > 100 µM (inactive) | > 100 µM (inactive) | > 100 µM (inactive) | > 100 µM (inactive) | > 100 µM (inactive) | > 100 µM (inactive) | > 100 µM (inactive) | > 100 µM | > 100 µM (inactive) | > 100 µM (inactive) | > 100 µM (inactive) | > 100 µM (inactive) | > 100 µM (inactive) | > 100 µM (inactive) | > 100 µM (inactive) | > 100 µM (inactive)
